# Where a SMILES comes first, the peptide text is derived from it. Bridges are numbered along the chain shown (N, C = ends). [ ]: non-standard residue; d: D form. Bip = N[C@@H](Cc1ccc(-c2ccccc2)cc1)C(=O)O; NMeF = CN[C@@H](Cc1ccccc1)C(=O)O
# Tests used:
# [1] = target: T1, E. coli Lgt (Escherichia coli, UniProt P60955); experiment: biochemical; conditions: 3 nM Lgt-DDM, 50 μM phosphatidylglycerol, 12.5 μM Pal-IAAC, 50 mM Tris (pH 8), 0.02% DDM, 60 min at RT; luminescence; at least two independent experiments in triplicates; read-out: IC50, inhibition of Lgt biochemical activity
# T1 construct: DNA encoding full-length E. coli Lgt fused to a C-terminal Flag tag; Flag (C); made in house; host or cells: E. coli Rosetta 2(DE3) Gold cells (Agilent)
# T1 sequence (P60955 whole entry, the tested form may be a part): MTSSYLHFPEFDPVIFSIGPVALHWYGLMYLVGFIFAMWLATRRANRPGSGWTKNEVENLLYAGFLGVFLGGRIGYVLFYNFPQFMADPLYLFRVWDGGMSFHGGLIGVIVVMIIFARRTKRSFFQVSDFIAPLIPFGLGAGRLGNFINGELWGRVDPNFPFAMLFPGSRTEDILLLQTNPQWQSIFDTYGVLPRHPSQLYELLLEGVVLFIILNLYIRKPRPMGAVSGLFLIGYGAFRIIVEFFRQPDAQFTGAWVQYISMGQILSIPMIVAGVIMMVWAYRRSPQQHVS
# [2] = Solubility (remark); format: physicochemical; conditions: prevented agar plate-based resistance selections
# [3] = system: CFT073 imp4213 Δlpp; experiment: Time-kill, CFT073 imp4213 versus CFT073 imp4213 Δlpp; format: cell-based, E. coli; conditions: 12.5 μM G2824, 3.2 μM globomycin or 1.6 μM vancomycin, CFU, two independent experiments in triplicates
# Experimental: To compare the rate of bactericidal killing of G2824 with that of globomycin, we treated CFT073 imp4213 and CFT073 imp4213 Δlpp cells with G2824 and globomycin at 2× MIC of the respective inhibitors against CFT073 imp4213 and enumerated viable CFU counts.
# Unless stated otherwise, E. coli cells were grown in Luria-Bertani (LB) medium (0.5% yeast extract, 1% tryptone, 0.5% NaCl) at 37°C. Where indicated, kanamycin (Kan) was added to culture media at a 50-μg/ml final concentration. MIC assays were performed based on Clinical and Laboratory Standards Institute (CLSI) guidelines. […] Growth of MG1655 inducible deletion strains was measured by culturing in the presence of 2-fold dilutions of arabinose (starting arabinose concentrations for CFT073 and MG1655 inducible deletion strains were 4% and 0.8%, respectively). While 2% arabinose was sufficient for WT growth of MG1655 Δlgt, 4% arabinose was used for CFT073 Δlgt based on comparing its growth to that of WT CFT073 as measured by CFU. OD600 growth measurements were performed using an EnVision 2101 multilabel reader plate reader (PerkinElmer) linked with Echo liquid handler (Labcyte). […] Bacterial viability at different time points during the treatment was measured by enumerating CFU. […]
# [4] = system: CFT073 Δlgt; experiment: MIC assay, CFT073 Δlgt, Lgt 4% Ara; format: cell-based, E. coli; conditions: Escherichia coli
# Experimental: (§1) Unless stated otherwise, E. coli cells were grown in Luria-Bertani (LB) medium (0.5% yeast extract, 1% tryptone, 0.5% NaCl) at 37°C. Where indicated, kanamycin (Kan) was added to culture media at a 50-μg/ml final concentration. MIC assays were performed based on Clinical and Laboratory Standards Institute (CLSI) guidelines. For in vitro growth curves, overnight cultures of WT CFT073, CFT073 Δlgt, and CFT073 Δlgt complemented with lgt from E. coli (lgt^Ec) or P. aeruginosa (lgt^Pa) were grown to mid-exponential phase (optical density at 600 nm [OD600] of 0.6) and then diluted to an OD600 of 0.1 to initiate growth curves. At various times, culture aliquots were diluted and plated in dilutions on LB+Kan agar, and CFU were enumerated in duplicates. Growth of MG1655 inducible deletion strains was measured by culturing in the presence of 2-fold dilutions of arabinose (starting arabinose concentrations for CFT073 and MG1655 inducible deletion strains were 4% and 0.8%, respectively). While […] was sufficient for WT growth of MG1655 Δlgt, 4% arabinose was used for CFT073 Δlgt based on comparing its growth to that of WT CFT073 as measured by CFU. OD600 growth measurements were performed using an EnVision 2101 multilabel reader plate reader (PerkinElmer) linked with Echo liquid handler (Labcyte). For time-kill experiments, bacteria were harvested in mid-exponential phase and treated with 12.5 μM G2824, 3.2 μM globomycin, and 1.6 μM vancomycin. CFU were enumerated at various times posttreatment. Bacterial culture medium containing 2% arabinose was used to induce lpp or lppΔK expression from pBad24 plasmids. Bacterial viability at different time points during the treatment was measured by enumerating CFU. Serum killing assays were carried out as previously described ([17]).
# [5] = system: WT CFT073; experiment: MIC assay, WT CFT073 (Table 1); format: cell-based, E. coli; conditions: Escherichia coli, average of two independent experiments, each in duplicates, CLSI
# Experimental: as §1
# [6] = system: CFT073 Δlgt; experiment: MIC assay, CFT073 Δlgt, Lgt 0.25% Ara; format: cell-based, E. coli; conditions: Escherichia coli
# Experimental: as §1
# [7] = system: CFT073 imp4213 lpp^Ara; experiment: Western blot of Lpp forms, arabinose-inducible Lpp; format: cell-based, E. coli; conditions: Lpp induced with arabinose prior to treatment
# Excerpt: Lpp expression was induced prior to treatment with G2824 or globomycin to minimize the level of preexisting triacylated Lpp.
# Bacterial cell samples normalized for equivalent OD600 and resuspended in BugBuster lysis buffer (Fischer Scientific) with the addition of sample buffer (LI-COR), and proteins were separated by SDS-PAGE using 16% Tricine protein gels or NuPAGE 4% to 20% bis-Tris gels (Thermo Fisher Scientific), transferred to nitrocellulose membranes using the iBlot 2 dry blotting system (Invitrogen), and blocked using LI-COR blocking buffer for 30 min. Unless stated otherwise, loading buffer with reducing agents was added and samples were not boiled prior to SDS-PAGE. For the sucrose gradient centrifugation, samples were boiled prior to running the SDS-PAGE. Primary antibodies were used at a final concentration of 1 μg/ml with some exceptions: rabbit anti-Lpp polyclonal antibody (0.1 μg/ml), murine anti-Pal 6D7 antibody (0.5 μg/ml), rabbit anti-GroEL antibody (1:10,000 final dilution), and rabbit anti-OmpA antibody (1:50,000 final dilution). The secondary antibodies were all obtained from LI-COR and used as per manufacturer’s instructions. Images were collected using the Odyssey CLx imaging system (LI-COR) and analyzed by Image Studio Lite.
# [8] = system: BW25113 cells, lgt gRNA; experiment: CRISPRi knockdown sensitization, lgt gRNA; format: cell-based, E. coli; conditions: 2 μM G2824, 0.05 μM globomycin or 0.016 μM ciprofloxacin; OD600 relative to untreated, versus scr or folA gRNA
# Excerpt: (§2) The two-plasmid bacterial CRISPRi system pdCas9-bacteria_GNE and PGNRNA-bacteria_GNE are based on the AddGene plasmids 44249 and 44251 ([73]), respectively. The plasmid was synthesized in smaller DNA fragments (500 bp to 3 kb) (IDT gBlocks) and assembled by Gibson assembly (NEB) according to the manufacturer’s protocols. Plasmids were confirmed by sequencing (ELIM Bio). gRNAs were designed to target the 5′ end of the gene on the nontemplate strand using Benchling CRISPR software ([74]). gRNAs were cloned into PGNRNA-bacteria using Gibson assembly (NEB) according to the manufacturer’s protocols and sequence confirmed (ELIM Bio).
# (§3) Bacterial cultures were grown overnight on LB agar supplemented with carbenicillin (50 μg/ml) and chloramphenicol (12.5 μg/ml) to maintain both plasmids, pdCas9-bacteria and PGNRNA-bacteria with each gRNA as appropriate. Cells were scraped from the plate into fresh medium. The OD600 was measured, and the culture was subsequently diluted to an OD600 0.001 in the presence or absence of G2824, globomycin, or ciprofloxacin. Two hundred microliters was transferred to a 96-well plate (Corning) and monitored for growth by measuring the OD600 (EnVision multimode plate reader; PerkinElmer). All treatments were performed in triplicates. The specificity of CRISPRi downregulation was measured using reverse transcriptase quantitative PCR (RT-qPCR).
# [9] = system: BW25113 cells, lspA gRNA; experiment: CRISPRi knockdown sensitization, lspA gRNA; format: cell-based, E. coli; conditions: 2 μM G2824, 0.05 μM globomycin or 0.016 μM ciprofloxacin; OD600 relative to untreated, versus scr or folA gRNA
# Excerpt: as §2, §3
smiles,measurement,setting,value
CN1C(=O)[C@H](Cc2ccc(-c3ccccc3)cc2)NC(=O)CNC(=O)[C@H](CCCNC(=N)N)NC(=O)[C@@H](Cc2ccccc2)NC(=O)CSC[C@@H](C(=O)NCC(N)=O)NC(=O)[C@H](CCCNC(=N)N)NC(=O)[C@H](CO)NC(=O)[C@H](Cc2ccc(-c3ccccc3)cc2)NC(=O)[C@@H]1Cc1ccccc1 [G9066] ({CH2CO}-[dF]RG[Bip][NMeF][Bip]SRCG-NH2; thioether N-9),IC50,[1],0.24 µM
CN1C(=O)[C@H](Cc2ccc(-c3ccccc3)cc2)NC(=O)CNC(=O)[C@H](CC(=O)O)NC(=O)[C@@H](Cc2ccccc2)NC(=O)CSC[C@@H](C(=O)NCC(=O)N[C@@H](CCCCN)C(=O)N[C@@H](CCCCN)C(N)=O)NC(=O)[C@H](CCCNC(=N)N)NC(=O)[C@H](CO)NC(=O)[C@H](Cc2ccc(-c3ccccc3)cc2)NC(=O)[C@@H]1Cc1ccccc1 [G2824] ({CH2CO}-[dF]DG[Bip][NMeF][Bip]SRCGKK-NH2; thioether N-9),IC50,[1],0.18 µM
same,solubility,[2],solubility issues
CN[C@H](CC(C)C)C(=O)N[C@H]1C(=O)N[C@@H](CC(N)=O)C(=O)N[C@H]2C(=O)N[C@H]3C(=O)N[C@H](C(=O)N[C@H](C(=O)O)c4cc(O)cc(O)c4-c4cc3ccc4O)[C@H](O)c3ccc(c(Cl)c3)Oc3cc2cc(c3O[C@@H]2O[C@H](CO)[C@@H](O)[C@H](O)[C@H]2O[C@H]2C[C@](C)(N)[C@H](O)[C@H](C)O2)Oc2ccc(cc2Cl)[C@H]1O [Vancomycin],effect of lpp deletion on bactericidal killing,[3],equivalent killing of CFT073 imp4213 and CFT073 imp4213 Δlpp at 5 h posttreatment
same,MIC,[4],> 100 µM
same,MIC,[5],> 100 µM
same,MIC,[6],12.5 µM
CCCCCC[C@H]1OC(=O)CNC(=O)[C@H]([C@H](C)O)NC(=O)[C@H](CO)NC(=O)[C@H]([C@H](C)CC)NC(=O)[C@H](CC(C)C)N(C)C(=O)[C@@H]1C [Globomycin],level of mature Lpp,[7],decreased mature Lpp
same,effect of lpp deletion on bactericidal killing,[3],lost in the absence of lpp
same,sensitization by decreased lgt expression,[8],not globomycin
same,sensitization by decreased lspA expression,[9],enhanced growth inhibition

# Source: article PMC8316002, “Inhibition of Escherichia coli Lipoprotein Diacylglyceryl Transferase Is Insensitive to Resistance Caused by Deletion of Braun’s Lipoprotein” (Journal of Bacteriology, 2021)
